Reference: US20220267380A1, “Glycopeptides Increasing Lipid Synthesis” (TFCHEM, priority 2019, published 2022)

What was measured:
[1] = tested on: normal human dermal fibroblasts (NHDF); experiment: Identification of biological processes involved (DAVID / Gene Ontology functional annotation of modulated genes); conditions: 10 mg/ml, p-value≤0.05
Source text: Gene Ontology database has been more specifically used for the data interpretation. DAVID functional annotation part was used to cluster modulated genes into significant biological processes. […] DAVID database uses the Gene Ontology consortium (http://www.geneontology.org) vocabularies (GO terms) to describe gene products in terms of their associated biological processes. Among them, only biological processes with p-value≤0.05 were taken into account.
The gene modulations of NHDF treated with compound 1 (10 mg/ml), compound 3 (10 mg/ml) and compound 4 (10 mg/ml) vs control were analysed to cluster modulated genes into significant biological processes (p-value≤0.05).

[2] = tested on: normal human dermal fibroblasts (NHDF); experiment: Microscopic observations of human dermal fibroblasts in culture (formation of lipid vesicles); type: cell-based; conditions: 48 h, vs untreated cells
Procedure: Normal human dermal fibroblasts (NHDF) were grown with Dulbecco's Modified Eagle
Medium (DMEM) supplemented with Fetal Calf Serum (FCS) 10%, antibiotics (Penicillin 50 U/ml—Streptomycin 50 μg/ml) and L-Glutamine 2 mM final. Cells were grown in 37° C. and 5% CO2 incubator.
Fibroblasts were seeded in 24-well plates and cultured in culture medium for 24 hours. The medium was then replaced by assay medium and cells were incubated for further 24 hours. For the assay, the medium was replaced by assay medium containing or not (control) the test compound at different concentrations. After 48 h the morphological observations were evaluated.

| Compound | main biological processes involved [1] | morphological observation of fibroblasts ([2]; 10 mg/ml) | morphological observation of fibroblasts ([2]; 20 mg/ml) | morphological observation of fibroblasts ([2]; 13 mg/ml) |
| --- | --- | --- | --- | --- |
| N[C@@H](CCCCNCC(F)(F)[C@]1(O)O[C@H](CO)[C@H](O)[C@H](O)[C@H]1O)C(=O)O [Compound 3] | the lipid metabolic process and the cholesterol biosynthetic process | – | – | – |
| C[C@H](NC(=O)[C@H](C)NC(=O)[C@@H](N)CCCCNCC(F)(F)[C@]1(O)O[C@H](CO)[C@H](O)[C@H](O)[C@H]1O)C(=O)O [Compound 1] | the lipid metabolic process and the cholesterol biosynthetic process | no effect | induced the formation of lipid vesicles in fibroblasts | – |
| CC(=O)N(CCCC[C@H](N)C(=O)O)CC(F)(F)[C@]1(O)O[C@H](CO)[C@H](O)[C@H](O)[C@H]1O [Compound 4] | the lipid metabolic process and the cholesterol biosynthetic process but also the ceramide metabolic process | – | – | induces the formation of lipid vesicles in fibroblasts and cell swelling |
